How the values were obtained:
AR = AR (Homo sapiens, UniProt P10275); settings: cited from earlier work
[1] = pharmacokinetic study data, subjects with mild and moderate hepatic impairment versus healthy controls; assay type: in vivo, human
[2] = test system: non-castrate hormone-sensitive and bicalutamide-resistant human prostate cancer xenograft models; settings: cited from earlier work
T877A AR mutant = target: T1, T877A AR mutant (Homo sapiens, UniProt P10275, T878A); settings: cited from earlier work
T1 sequence (P10275 1-920 T878A): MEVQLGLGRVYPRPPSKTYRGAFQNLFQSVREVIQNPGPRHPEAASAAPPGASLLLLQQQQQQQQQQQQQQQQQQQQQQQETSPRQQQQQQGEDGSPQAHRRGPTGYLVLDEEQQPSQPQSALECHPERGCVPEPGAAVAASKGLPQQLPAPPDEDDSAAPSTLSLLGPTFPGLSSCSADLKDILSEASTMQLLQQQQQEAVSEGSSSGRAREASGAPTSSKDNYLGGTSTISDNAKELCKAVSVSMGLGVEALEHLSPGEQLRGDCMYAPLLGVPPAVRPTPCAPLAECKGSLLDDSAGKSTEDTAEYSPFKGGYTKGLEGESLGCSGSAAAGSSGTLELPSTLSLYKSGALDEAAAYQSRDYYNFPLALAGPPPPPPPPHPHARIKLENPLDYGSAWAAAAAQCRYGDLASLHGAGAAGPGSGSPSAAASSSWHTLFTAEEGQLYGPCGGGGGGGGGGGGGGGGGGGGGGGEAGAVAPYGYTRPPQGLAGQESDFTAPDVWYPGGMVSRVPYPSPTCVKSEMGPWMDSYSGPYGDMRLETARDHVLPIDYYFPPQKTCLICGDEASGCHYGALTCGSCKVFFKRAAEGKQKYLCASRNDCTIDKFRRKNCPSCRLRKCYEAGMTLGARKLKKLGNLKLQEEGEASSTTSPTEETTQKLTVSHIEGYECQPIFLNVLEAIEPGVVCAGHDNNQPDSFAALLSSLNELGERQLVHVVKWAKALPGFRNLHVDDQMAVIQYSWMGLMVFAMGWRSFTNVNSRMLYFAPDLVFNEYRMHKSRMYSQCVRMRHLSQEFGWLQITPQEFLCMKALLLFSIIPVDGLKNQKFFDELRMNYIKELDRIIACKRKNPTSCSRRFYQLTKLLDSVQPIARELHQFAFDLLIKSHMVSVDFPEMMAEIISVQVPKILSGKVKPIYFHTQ

Sequence of AR (P10275 whole entry): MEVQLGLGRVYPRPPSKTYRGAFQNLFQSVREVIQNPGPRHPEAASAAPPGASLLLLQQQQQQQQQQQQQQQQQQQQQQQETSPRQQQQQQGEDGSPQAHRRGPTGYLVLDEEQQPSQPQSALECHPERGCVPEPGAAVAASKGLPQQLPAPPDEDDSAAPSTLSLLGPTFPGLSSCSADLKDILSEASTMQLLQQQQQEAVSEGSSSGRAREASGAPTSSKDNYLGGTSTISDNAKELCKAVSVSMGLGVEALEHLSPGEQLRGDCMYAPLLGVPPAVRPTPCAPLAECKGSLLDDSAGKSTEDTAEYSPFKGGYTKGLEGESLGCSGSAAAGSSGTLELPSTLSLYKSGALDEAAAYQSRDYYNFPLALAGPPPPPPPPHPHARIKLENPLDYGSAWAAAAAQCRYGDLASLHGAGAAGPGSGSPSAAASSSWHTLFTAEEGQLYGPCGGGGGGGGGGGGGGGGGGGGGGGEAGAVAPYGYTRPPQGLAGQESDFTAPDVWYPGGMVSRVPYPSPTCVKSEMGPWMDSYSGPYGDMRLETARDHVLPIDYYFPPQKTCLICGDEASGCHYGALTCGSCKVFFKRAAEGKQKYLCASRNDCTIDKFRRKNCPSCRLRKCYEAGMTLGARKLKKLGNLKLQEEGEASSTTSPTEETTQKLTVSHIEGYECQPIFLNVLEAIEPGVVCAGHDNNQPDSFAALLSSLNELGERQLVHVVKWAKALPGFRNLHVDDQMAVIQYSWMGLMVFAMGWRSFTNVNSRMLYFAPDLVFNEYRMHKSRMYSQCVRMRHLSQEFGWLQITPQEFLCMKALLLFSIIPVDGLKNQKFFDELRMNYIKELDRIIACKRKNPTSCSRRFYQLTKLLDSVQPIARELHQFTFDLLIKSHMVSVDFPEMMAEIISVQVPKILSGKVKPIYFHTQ

In the case of `CC(O)c1cc(C(=O)N[C@@H](C)Cn2ccc(-c3ccc(C#N)c(Cl)c3)n2)n[nH]1` (stereo partly drawn) [Darolutamide, N-{(2S)-1-[3-(3-chloro-4-cyanophenyl)-1H-pyrazol-1-yl]propan-2-yl}-5-(1-hydroxyethyl)-1H-pyrazole-3-carboxamide], the “binding affinity for AR” value (AR) is given as “high affinity”.
In the case of `CNC(=O)c1ccc(N2C(=S)N(c3cnc(C#N)c(C(F)(F)F)c3)C(=O)C23CCC3)cc1F` [apalutamide, 4-[7-(6-cyano-5-trifluoromethylpyridin-3-yl)-8-oxo-6-thioxo-5,7-diazaspiro[3.4]oct-5-yl]-2-fluoro-N-methylbenzamide], the “total coefficient of variation (CV) for AUCs (AUClast and AUC∞)” value [1] is listed as no more than 27%, the “total coefficient of variation (CV) for Cmax” value [1] is listed as no more than 35% and the tumor regression [2] is listed as “partial or complete tumor regression”.
For `CC(C)(O)C(=O)Nc1ccc([N+](=O)[O-])c(C(F)(F)F)c1` [hydroxyflutamide], the agonist activity (T877A AR mutant) is listed as “act as AR agonists”.

Source: patent US11723898B2, “Androgen receptor inhibitors for the treatment of non-metastatic castration-resistant prostate cancer in subjects with severe hepatic impairment” (Aragon Pharmaceuticals, Inc., priority 2019, dated 2023)
